From patent US12055547B2, “TMEM active test and uses thereof in diagnosis, prognosis and treatment of tumors” (Albert Einstein College of Medicine, priority 2015, dated 2024) come the findings set out here.

Assay [1] concerns macrophages. The assay is described as follows: Macrophage depletion in PyMT tumors in the MAFIA mouse model. The assay is classed as in vivo. The following applies: vs vehicle. The text has this: Summary Tumor cell intravasation at sites of transient vascular permeability associated with TMEM was studied using mouse mammary tumor virus—polyoma middle T antigen (MMTV-PyMT) autochthonous and implanted models of human patient-derived mammary carcinoma. Single cell resolution of cell activity at TMEM in live animals was achieved using extended time-lapse imaging on a custom-built two-laser multiphoton microscope. To investigate the role of macrophages in tumor cell intravasation and blood vessel permeability, the MAFIA mouse model was used to deplete macrophages. Observation of extravascular dextran, vascular junction proteins and protein expression in tissue was performed using immunofluorescence microscopy. Further investigation of the mechanism of macrophage-mediated tumor cell intravasation and blood vessel permeability at TMEM utilized anti-mouse-VEGFA inhibitory antibody and the ablation of Vegfa expression in monocytes using a myeloid-specific (Csf1r promoter), tamoxifen-inducible Cre expressing mouse strain was crossed with Vegfa^flox/flox mice with gene ablation induced with tamoxifen.
Immunofluorescence image analysis. […] The remaining extravascular dextran area, and blood vessel area were then measured. […]

In assay [2] the test system is Tie2 macrophage function in TMEM. The assay is described as follows: TMEM density and TMEM activity (IV-dextran/ZO-1 staining) in tumor after rebastinib. The assay is classed as in vivo. The text has this: FIG. 11A-11B. […] (B) Quantification of vascular permeability activity of tumor TMEM using vascular permeability marker IV-dextran/ZO-1 staining intensity (n=7 and 9; * , P=0.0177).
The relative activity of TMEM can be quantified in (e.g., FFPE) tissue sections in several ways, e.g.: • 1. as the ratio of IV-dextran (or other IV contrast agent) that has leaked from the blood vessel into the tissue at the time of Formaldehyde Fixation after IV injection of contrast agent in preparation for FFPE (measure of local vascular permeability) divided by ZO-1 or VE-Cad staining intensity at TMEM (FIG. 11). Higher dextran/ZO-1=more TMEM activity; • 2. as the ratio of ZO-1 or VE-Cad staining intensity at TMEM per area of blood vessel (CD31 staining area) (FIG. 12). Higher VE-Cad or ZO-1/CD31=less TMEM activity; • 3. as the absolute intensity of ZO-1 or VE-Cad staining intensity at TMEM sites (FIG. 10). Higher VE-Cad staining=less TMEM activity.
The activity status of TMEM (TMEM^Active) in patient tissue samples can be used to assess the efficacy of dissemination inhibitor drugs that inhibit TMEM activity. For example, observe the effects of the following dissemination inhibitors on TMEM^Active using the quantitation methods for TMEM activity described in #1-3 above as follows: • a. Rebastinib, the Tie2 inhibitor which blocks VEGF^Hi TMEM macrophage function, (FIG. 11); • b. […]

`CC[C@H](C(=O)N1CCCC[C@H]1C(=O)O[C@H](CCc1ccc(OC)c(OC)c1)c1cccc(OCC(=O)NCC(CNC(=O)COc2cccc([C@@H](CCc3ccc(OC)c(OC)c3)OC(=O)[C@@H]3CCCCN3C(=O)[C@@H](CC)c3cc(OC)c(OC)c(OC)c3)c2)CN(C)C)c1)c1cc(OC)c(OC)c(OC)c1` [B/B homodimerizer]: the “blood vessel permeability (extravascular 155 kDa dextran-TMR)” value in assay [1] (FIG. 5E) was “reduces”. The “tumor cell intravasation (circulating tumor cells)” value in assay [1] (FIG. 5F) is recorded as “reduces”.
On to `CNC(=O)c1cc(Oc2ccc(NC(=O)Nc3cc(C(C)(C)C)nn3-c3ccc4ncccc4c3)c(F)c2)ccn1` [Rebastinib], for which, in assay [2] (FIG. 11A), the “TMEM density in 10 40× fields” value is reported as “not significant”. The “vascular permeability activity of tumor TMEM (IV-dextran/ZO-1 staining intensity)” value in assay [2] (FIG. 11B, n=7 and 9, P=0.0177) was “inhibits TMEM activity”.
